# Results taken from the SangsterLogP compilation.
# Test: method code SF, from DOI: 10.1021/jm00344a020, PMID: 7057427
row,logP,Structure (SMILES)
1,1.09,CCOC(=O)NN1CC=CCC1
2,0.45,O=C(NN1CC=CCC1)C1CCCCC1
3,0.52,CC(=O)NN1CC=CCC1
4,1.92,O=C(NC1CCCC1)N1CC=CCC1
5,1.5,O=C(NN1CC=CCC1)C1CCCCCC1
6,1.12,O=C(NN1CC=CCC1)C1CC1

# Test: method code SF-AS, from DOI: 10.1021/jm00344a020, PMID: 7057427
row,Structure (SMILES),logP
1,CC(C)(C)C(=O)NN1CC=CCC1,1.03
2,O=C(NN1CC=CCC1)C12CC3CC(CC(C3)C1)C2,1.45
3,O=C(NN1CC=CCC1)c1cccc(C(=O)NN2CC=CCC2)n1,-0.52

# Results, then the molecule that gave them:
row,logP,Structure (SMILES)
1,0.68,O=C(Cc1ccc2c(c1)OCO2)NN1CC=CCC1
2,-0.32,O=C(NN1CC=CCC1)c1cccc[n+]1[O-]
3,0.81,O=C(NN1CC=CCC1)c1ccco1
4,-0.06,O=C(COc1ccccc1)NN1CC=CCC1
5,1.96,O=C(COc1cccc2ccccc12)NN1CC=CCC1
6,0.05,O=C(Cc1cccnc1)NN1CC=CCC1
7,1.88,O=C(NN1CC=CCC1)c1cccs1
